Results reported in PMC2688476, “Low affinity glucocorticoid binding site ligands as potential anti-fibrogenics” (Comparative Hepatology, 2009).

Assays:
[1] = molecular target: low affinity glucocorticoid binding site (LAGS) in rat liver microsomes (Rattus norvegicus, UniProt P70580); test: Competition with radiolabelled dexamethasone for specific binding to rat liver microsomes (LAGS activity); details: read-out: IC50% (competition of substituted progestins for binding to rat liver microsomes); Additional file 1; vs radiolabelled dexamethasone
Experimental: A small volume of each incubation was removed to determine the total ligand concentration ([L0]) prior to removal of free unbound ligand by dextran/charcoal adsorption. […] Free ligand concentration at equilibrium was calculated by subtracting specifically bound ligand at equilibrium from the total ligand concentration (i.e. [L0] - [LRe]) and assumes receptor-ligand stoichiometry of 1:1.
In brief, rats were anaesthetized with pentobarbital and a 16G cannula inserted into the hepatic portal vein and secured. […] The liver was then excised and chopped roughly with ice-cooled TS buffer (10 mM Tris/HCl pH 7.4 containing 250 mM sucrose) and disrupted using a Potter-Elvehjem homogenisor. The resultant homogenate was then centrifuged at 12,000 g for 20 minutes at 4°C and the supernatant retained and centrifuged at 100,000 g for 60 minutes at 4°C. The resultant "microsomal" pellet was re-suspended in fresh TS buffer and re-centrifuged at 100,000 g to obtain a washed microsomal pellet. […] After overnight incubation on ice, free ligand was removed by charcoal dextran adsorption and bound radioligand determined in supernatants by liquid scintillation, essentially as previously described.

[2] = tested on: CYP3A1/3A23; test: Screening for PXR activators in rat hepatocytes via CYP3A induction (Western blot); format: cell-based; details: rat
[3] = tested on: CYP3A4; test: Screening for PXR activators in human hepatocytes via CYP3A induction (Western blot); format: cell-based; details: human
[4] = tested on: rat HSCs; test: Rat HSC-to-myofibroblast trans-differentiation (α-smooth muscle actin Western blot); format: cell-based; details: α-sma Western blot after 9 days of treatment
Experimental: (§1) Figure 5 Screening for inhibitors of trans-differentiation in rat and human HSCs – Part 1. Rat HSCs were isolated and cultured for 2 days (T0) whereupon cells were treated with the indicated compound as outlined in methods section. After 9 days, cells were analyzed by Western blotting for α-smooth muscle actin (α-sma). Each lane contains 10 μg total protein/lane, results typical of at least 3 separate experiments (a). Human HSCs were treated with the indicated compound and confluence determined in randomly selected fields. Data are the mean and standard deviation confluence at day 12 of 3 separate treatment dishes from the same donor, typical of at least 3 separate donors (b).
(§2) HSCs were isolated from rats (250–300 g body weight, Harlan, UK) by sequential pronase/collagenase perfusion of the liver followed by density gradient centrifugation and elutriation as previously outlined. Human HSCs were isolated by an essentially similar procedure using discarded tissue from patients undergoing a hepatectomy with patient consent and ethical approval by the Grampian Regional Ethical Committee. HSCs were seeded onto plastic culture dishes and cultured in Dulbecco's modified Eagle Medium (DMEM) containing 4.5 g/l of glucose and supplemented with 5% or 16% (v/v) fetal calf serum (for rat or human respectively), […] penicillin, 80 μg/ml streptomycin and 32 μg/ml gentamycin. Additional treatments were made by addition of compounds in an ethanol vehicle (stock solutions at 1000× final concentration). Ethanol at 0.1% (v/v) acted as control. Frequency of treatment (3 treatments per week/2 medium changes per week), as previously described.

[5] = tested on: human HSCs; test: Human HSC trans-differentiation/proliferation (confluence, α-sma); format: cell-based; details: confluence at day 12
Experimental: as §1
Figure 6 Screening for inhibitors of trans-differentiation in rat and human HSCs – Part 2. Photomicrographs of human HSCs at day 12 of culture with the indicated treatment (a); levels of expression of α-smooth muscle actin (α-sma) (b) and levels of expression of fibrogenic marker mRNA transcripts in human HSCs after treatment selected compounds for 19 days. Data are the mean and standard deviation relative transcript level from 3 separate treatments on cells from the same donor, typical of at least 3 separate donors (c).
as §2

[6] = tested on: human myofibroblasts; test: Fibrogenic marker mRNA transcripts (TGFβ, TIMP1, collagen 1A1) in human myofibroblasts, qRT-PCR; format: cell-based; details: treatment for 19 days
Excerpt: Quantitative transcript expression was examined after reverse transcription (using a Taqman reverse transcription kit (Applied Biosystems)) using a PE Applied Biosystems ABI7700 and PE Applied Biosystems Gene Expression Assay™, incorporating sequence-specific forward, reverse and fluorescently labelled probes (see Table 2).

[7] = Pilot toxicity study in adult male rats; format: in vivo, rat; details: 3 days at up to 100 mg/kg body weight i.p.; 24 hours after final treatment
Experimental: Since there was no information in the literature regarding any potential adverse effects of 4A3COOHmethyl administration, a pilot toxicity study was initially undertaken, in which adult male rats were administered 4A3COOHmethyl for 3 days at up to 100 mg/kg body weight by i.p. injection.

[8] = tested on: rat CCl4 model of liver fibrosis; test: Rat CCl4 model of liver fibrosis; format: in vivo; details: 20 mg/kg i.p. weekly, 8 weeks CCl4
Experimental: To examine the effects of 4A3COOHmethyl on fibrosis, adult male rats were treated with 20 mg/kg body weight by i.p. injection every week during an 8 week twice weekly treatment with CCl4, to generate liver fibrosis. A reduced dose of 20 mg/kg body weight was chosen because the compound was to be administered to rats with compromised liver function. To avoid potential interactions with CCl4, toxicity (i.e., reductions in CCl4 hepatotoxicity that could be misinterpreted as anti-fibrogenic effects), 4A3COOHmethyl was not administered within a 48 hour period of CCl4 administration. Previous work has established that a similar dose of PCN – using the same dosing regimen – is sufficient to modulate fibrosis in animal models of fibrosis.
Figure 7 4A3COOHmethyl administration and liver fibrosis in a rat CCl4 model of liver fibrosis. […] Mean and standard deviation serum ALT (a); Mean and standard deviation collagen 1A1 mRNA levels (b); typical views of liver sections stained for sirius red, with a 100 μm scale bar (b); quantitative image analysis for fibrosis – data are the mean and standard deviation percentage sirius red staining from at least 4 separate animals in each treatment with at least 10 randomly selected fields examined for each animal (c). […]

Chain of low affinity glucocorticoid binding site (LAGS) in rat liver microsomes (P70580 2-195): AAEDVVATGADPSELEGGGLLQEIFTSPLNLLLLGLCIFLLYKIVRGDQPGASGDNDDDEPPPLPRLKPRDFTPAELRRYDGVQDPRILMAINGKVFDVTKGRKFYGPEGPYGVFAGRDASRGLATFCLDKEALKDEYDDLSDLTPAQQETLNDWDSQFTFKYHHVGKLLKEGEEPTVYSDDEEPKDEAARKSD

In the case of COC(=O)[C@H]1CC[C@H]2[C@@H]3CCC4=CC(=O)CC[C@]4(C)[C@H]3CC[C@]12C [4A3COOHmethyl, 4 androstene-3-one 17β-carboxylic acid methyl ester], the IC50 [1] is reported as 100 nM, the “activity as a PXR activator, rat” value [2] is reported as “no activity” and the “activity as a PXR activator, human” value [3] is reported as “no activity”. For the same compound, the “inhibition of rat HSC trans-differentiation” value [4] was “effective”, the “inhibitory activity on human HSC trans-differentiation” value [5] was “significant inhibitory activity” and the “expression of TGFβ, TIMP1 and collagen 1A1 mRNAs in human myofibroblasts” value [6] was “inhibited the expression of all mRNAs”. For the same compound, the “adverse effects (liver serum enzyme levels and liver pathology)” value [7] was “no adverse effects were observed”, the “fibrosis severity (α-sma staining, collagen 1a1 mRNA, sirius red staining)” value [8] was “did not significantly affect” and the “serum levels of ALT” value [8] was “did not affect”.
